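Tested at 5 concentrations; 48 h exposure; 96-well plates; endpoints linearly interpolated, else capped at highest concentration. GI50 marks 50% less growth. At the TGI there is no net growth.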
Experiments:
Assay in all cases: DTP human tumour cell line panel, 48 h
A549 NSCLC = system: A549 NSCLC
HL-60(TB) leukemia = system: HL-60(TB) leukemia
RPMI-8226 leukemia = system: RPMI-8226 leukemia
HOP-92 NSCLC = system: HOP-92 NSCLC
SF-539 CNS = system: SF-539 CNS
U251 CNS = system: U251 CNS
KM12 colon = system: KM12 colon
MALME-3M melanoma = system: MALME-3M melanoma
SF-268 CNS = system: SF-268 CNS
SK-MEL-2 melanoma = system: SK-MEL-2 melanoma
LOX IMVI melanoma = system: LOX IMVI melanoma
OVCAR-5 ovarian = system: OVCAR-5 ovarian
ACHN renal = system: ACHN renal
SK-MEL-5 melanoma = system: SK-MEL-5 melanoma
SNB-75 CNS = system: SNB-75 CNS
HOP-62 NSCLC = system: HOP-62 NSCLC
786-0 renal = system: 786-0 renal
PC-3 prostate = system: PC-3 prostate
TK-10 renal = system: TK-10 renal
NCI-H23 lung = system: NCI-H23 lung
OVCAR-4 ovarian = system: OVCAR-4 ovarian
SNB-19 CNS = system: SNB-19 CNS
BT-549 breast = system: BT-549 breast
COLO 205 colon = system: COLO 205 colon
HT29 colon = system: HT29 colon
SK-OV-3 ovarian = system: SK-OV-3 ovarian
UO-31 renal = system: UO-31 renal
OVCAR-3 ovarian = system: OVCAR-3 ovarian
K-562 leukemia = system: K-562 leukemia
MDA-MB-435 = system: MDA-MB-435
UACC-62 melanoma = system: UACC-62 melanoma
HCT-15 colon = system: HCT-15 colon
HCC-2998 colon = system: HCC-2998 colon
NCI-H226 lung = system: NCI-H226 lung
A498 renal = system: A498 renal
SK-MEL-28 melanoma = system: SK-MEL-28 melanoma
MDA-MB-468 breast = system: MDA-MB-468 breast
MDA-MB-231 breast = system: MDA-MB-231 breast
MCF7 breast = system: MCF7 breast
M14 melanoma = system: M14 melanoma
CAKI-1 renal = system: CAKI-1 renal
UACC-257 melanoma = system: UACC-257 melanoma
SW-620 colon = system: SW-620 colon
DU-145 prostate = system: DU-145 prostate
NCI-H522 lung = system: NCI-H522 lung
IGROV1 ovarian = system: IGROV1 ovarian
T-47D breast = system: T-47D breast

`CC(=O)Oc1ccccc1C(=O)[Se]CC(=O)Nc1cccc(C(F)(F)F)c1` gave a GI50 (A549 NSCLC) of 1660 nM, a TGI (A549 NSCLC) of 3.8 µM and a GI50 (HL-60(TB) leukemia) of 1780 nM. The TGI (HL-60(TB) leukemia) was 5.27 µM, the GI50 (RPMI-8226 leukemia) was 5.44 µM and the TGI (RPMI-8226 leukemia) was 85 µM. The GI50 (HOP-92 NSCLC) was 763 nM, the TGI (HOP-92 NSCLC) was 2150 nM and the GI50 (SF-539 CNS) was 1870 nM. It also gave a TGI (SF-539 CNS) of 3.34 µM, a GI50 (U251 CNS) of 2120 nM and a TGI (U251 CNS) of 5.3 µM. The GI50 (KM12 colon) was 5.04 µM, the TGI (KM12 colon) was 19.5 µM and the GI50 (MALME-3M melanoma) was 1570 nM. It also gave a TGI (MALME-3M melanoma) of 3.04 µM, a GI50 (SF-268 CNS) of 2690 nM and a TGI (SF-268 CNS) of 5.87 µM. It also gave a GI50 (SK-MEL-2 melanoma) of 2840 nM, a TGI (SK-MEL-2 melanoma) of 10.9 µM and a GI50 (LOX IMVI melanoma) of 1940 nM. The TGI (LOX IMVI melanoma) was 3.65 µM, the GI50 (OVCAR-5 ovarian) was 2150 nM and the TGI (OVCAR-5 ovarian) was 5.12 µM. It also gave a GI50 (ACHN renal) of 2390 nM, a TGI (ACHN renal) of 6.36 µM and a GI50 (SK-MEL-5 melanoma) of 1290 nM. For the same compound, the TGI (SK-MEL-5 melanoma) was 2690 nM, the GI50 (SNB-75 CNS) was 2470 nM and the TGI (SNB-75 CNS) was 5.94 µM. The GI50 (HOP-62 NSCLC) was 2910 nM, the TGI (HOP-62 NSCLC) was 5.44 µM and the GI50 (786-0 renal) was 2210 nM. It also gave a TGI (786-0 renal) of 4.62 µM, a GI50 (PC-3 prostate) of 5.23 µM and a TGI (PC-3 prostate) of 21.9 µM. It also gave a GI50 (TK-10 renal) of 2070 nM, a TGI (TK-10 renal) of 4.71 µM and a GI50 (NCI-H23 lung) of 1500 nM. It also gave a TGI (NCI-H23 lung) of 3.87 µM, a GI50 (OVCAR-4 ovarian) of 5.19 µM and a TGI (OVCAR-4 ovarian) of 60.9 µM. The GI50 (SNB-19 CNS) was 1860 nM, the TGI (SNB-19 CNS) was 3.8 µM and the GI50 (BT-549 breast) was 2130 nM. It also gave a TGI (BT-549 breast) of 3.61 µM, a GI50 (COLO 205 colon) of 4.35 µM and a TGI (COLO 205 colon) of 17 µM. It also gave a GI50 (HT29 colon) of 1880 nM, a TGI (HT29 colon) of 5.16 µM and a GI50 (SK-OV-3 ovarian) of 4.22 µM. The TGI (SK-OV-3 ovarian) was 20.3 µM, the GI50 (UO-31 renal) was 1230 nM and the TGI (UO-31 renal) was 2560 nM. It also gave a GI50 (OVCAR-3 ovarian) of 1710 nM, a TGI (OVCAR-3 ovarian) of 4.38 µM and a GI50 (K-562 leukemia) of 5.59 µM. For the same compound, the TGI (K-562 leukemia) was 55.3 µM, the GI50 (MDA-MB-435) was 3.12 µM and the TGI (MDA-MB-435) was 5.41 µM. The GI50 (UACC-62 melanoma) was 1380 nM, the TGI (UACC-62 melanoma) was 3.07 µM and the GI50 (HCT-15 colon) was 1420 nM. The TGI (HCT-15 colon) was 2850 nM, the GI50 (HCC-2998 colon) was 11.9 µM and the TGI (HCC-2998 colon) was 25.7 µM. The GI50 (NCI-H226 lung) was 3.11 µM, the TGI (NCI-H226 lung) was 5.55 µM and the GI50 (A498 renal) was 1450 nM. It also gave a TGI (A498 renal) of 2950 nM, a GI50 (SK-MEL-28 melanoma) of 2060 nM and a TGI (SK-MEL-28 melanoma) of 4.35 µM. For the same compound, the GI50 (MDA-MB-468 breast) was 1750 nM, the TGI (MDA-MB-468 breast) was 3.35 µM and the GI50 (MDA-MB-231 breast) was 2310 nM. The TGI (MDA-MB-231 breast) was 4.18 µM, the GI50 (MCF7 breast) was 2750 nM and the TGI (MCF7 breast) was 12.4 µM. For the same compound, the GI50 (M14 melanoma) was 1950 nM, the TGI (M14 melanoma) was 3.83 µM and the GI50 (CAKI-1 renal) was 198 nM. It also gave a TGI (CAKI-1 renal) of 361 nM, a GI50 (UACC-257 melanoma) of 3.21 µM and a TGI (UACC-257 melanoma) of 9.82 µM. The GI50 (SW-620 colon) was 1460 nM, the TGI (SW-620 colon) was 3.11 µM and the GI50 (DU-145 prostate) was 2090 nM. It also gave a TGI (DU-145 prostate) of 4.61 µM, a GI50 (NCI-H522 lung) of 1830 nM and a TGI (NCI-H522 lung) of 3.81 µM. For the same compound, the GI50 (IGROV1 ovarian) was 2050 nM, the TGI (IGROV1 ovarian) was 4 µM and the GI50 (T-47D breast) was 7.09 µM. It also gave a TGI (T-47D breast) of 49.5 µM.
